# Laboratory results as given in the supplement of paper PMC11451515.
# Tested on: NOMO1
# Test: cell viability relative to DMSO control; higher = less cytotoxic
# Details: 48 h
# Method in brief: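 NOMO1, SEM and P12-Ichikawa leukemia cells spent at least four passages adapting to each medium before use. They were seeded at 500 cells/well (NOMO1, SEM) or 1000 cells/well (P12-Ichikawa) in 5 μl in 1536-well plates and pin-dosed with library compounds in DMSO at 11 threefold steps from 47 μM down to 0.79 nM. After 48 h at 37°C, CellTiter-Glo One luminescence was read. Viability is reported as a percentage of the DMSO wells on each plate, with cell-free wells as background.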
# [1] = HPLM + 10% dialyzed FBS, 0.000781 µM
# [2] = HPLM + 10% dialyzed FBS, 0.00234 µM
# [3] = HPLM + 10% dialyzed FBS, 0.00702 µM
# [4] = HPLM + 10% dialyzed FBS, 0.0211 µM
# [5] = HPLM + 10% dialyzed FBS, 0.0632 µM
# [6] = HPLM + 10% dialyzed FBS, 0.19 µM
# [7] = HPLM + 10% dialyzed FBS, 0.569 µM
# [8] = HPLM + 10% dialyzed FBS, 1.71 µM
# [9] = HPLM + 10% dialyzed FBS, 5.12 µM
# [10] = HPLM + 10% dialyzed FBS, 15.4 µM
# [11] = HPLM + 10% dialyzed FBS, 46.1 µM
# [12] = RPMI 5 mM glucose + 10% FBS, 0.000781 µM
# [13] = RPMI 5 mM glucose + 10% FBS, 0.00234 µM
# [14] = RPMI 5 mM glucose + 10% FBS, 0.00702 µM
# [15] = RPMI 5 mM glucose + 10% FBS, 0.0211 µM
# [16] = RPMI 5 mM glucose + 10% FBS, 0.0632 µM
# [17] = RPMI 5 mM glucose + 10% FBS, 0.19 µM
# [18] = RPMI 5 mM glucose + 10% FBS, 0.569 µM
# [19] = RPMI 5 mM glucose + 10% FBS, 1.71 µM
# [20] = RPMI 5 mM glucose + 10% FBS, 5.12 µM
# [21] = RPMI 5 mM glucose + 10% FBS, 15.4 µM
# [22] = RPMI 5 mM glucose + 10% FBS, 46.1 µM
# [23] = RPMI 5 mM glucose + 10% dialyzed FBS, 0.000781 µM
# [24] = RPMI 5 mM glucose + 10% dialyzed FBS, 0.00234 µM
# [25] = RPMI 5 mM glucose + 10% dialyzed FBS, 0.00702 µM
# [26] = RPMI 5 mM glucose + 10% dialyzed FBS, 0.0211 µM
# [27] = RPMI 5 mM glucose + 10% dialyzed FBS, 0.0632 µM
# [28] = RPMI 5 mM glucose + 10% dialyzed FBS, 0.19 µM
# [29] = RPMI 5 mM glucose + 10% dialyzed FBS, 0.569 µM
# [30] = RPMI 5 mM glucose + 10% dialyzed FBS, 1.71 µM
# [31] = RPMI 5 mM glucose + 10% dialyzed FBS, 5.12 µM
# [32] = RPMI 5 mM glucose + 10% dialyzed FBS, 15.4 µM
# [33] = RPMI 5 mM glucose + 10% dialyzed FBS, 46.1 µM
Structure (SMILES),cell viability [1] [%],cell viability [2] [%],cell viability [3] [%],cell viability [4] [%],cell viability [5] [%],cell viability [6] [%],cell viability [7] [%],cell viability [8] [%],cell viability [9] [%],cell viability [10] [%],cell viability [11] [%],cell viability [12] [%],cell viability [13] [%],cell viability [14] [%],cell viability [15] [%],cell viability [16] [%],cell viability [17] [%],cell viability [18] [%],cell viability [19] [%],cell viability [20] [%],cell viability [21] [%],cell viability [22] [%],cell viability [23] [%],cell viability [24] [%],cell viability [25] [%],cell viability [26] [%],cell viability [27] [%],cell viability [28] [%],cell viability [29] [%],cell viability [30] [%],cell viability [31] [%],cell viability [32] [%],cell viability [33] [%]
CC/C(=C(\c1ccccc1)c1ccc(OCCN(C)C)cc1)c1ccccc1,95,122,107,99.5,119,113,113,92.4,111,92.5,49.1,94.8,102,102,115,103,101,94.1,99,96.1,105,76.7,93.1,99.2,104,103,115,110,114,99.8,117,81,34.7
CN1CCN(c2cc(C(=O)Nc3ccc4c(c3)-c3c(c(C(N)=O)nn3-c3ccc(F)cc3)CC4)c(Cl)cn2)CC1,123,106,108,113,114,127,113,103,99.4,85.9,1.35,108,102,111,109,109,107,112,106,109,97.4,2.41,116,108,121,102,117,107,93.4,100,99.9,102,2.16
Cc1nc(C(=O)NCC(=O)O)c(O)c2ccc(Oc3ccccc3)cc12,106,113,113,119,113,116,104,101,118,97.4,107,99.4,105,95.7,87.2,94.5,104,86.6,94.9,84.5,102,92.5,84.4,85.3,108,105,116,98.2,96.2,94.9,82.2,104,99.4
Cc1nc(N)sc1-c1ccnc(Nc2ccc(N3CCOCC3)cc2)n1,95.3,117,111,120,110,114,115,112,87,79.6,82.8,93.7,91,96.5,95.5,105,114,105,105,71.2,85.2,55.5,95.6,112,116,109,115,106,110,111,69.3,72.6,61.7
COC1=C(CC=C(C)C)C2=C(\C=C/C(=O)O2)C=C1,101,107,125,110,119,114,117,120,102,113,81.8,114,117,120,116,104,123,104,108,108,114,97.9,116,116,117,105,108,116,120,113,98.7,104,85.2
COc1ccccc1N1CCN(CC(O)COc2cccc3ccccc23)CC1 (centres undefined),,,,,,,,,,,,115,131,122,133,132,143,116,115,113,107,23.6,,,,,,,,,,,
Oc1ccc(-c2nc(-c3ccncc3)c(-c3ccc(F)cc3)[nH]2)cc1,99.7,113,122,117,125,135,147,121,19.1,2.63,1.72,100,106,106,112,116,135,150,125,118,18.4,1.54,105,124,126,110,122,133,136,128,130,36.8,1.72
O=C1C(CCC(O)c2ccc(F)cc2)C(c2ccc(O)cc2)N1c1ccc(F)cc1 (centres undefined),111,104,123,124,113,132,133,132,146,132,47.5,114,114,108,106,110,120,112,122,122,130,127,101,98.9,107,113,92.7,118,111,103,117,106,103
COc1ccc(-c2cc3c(C)nc(N)nc3n([C@H]3CC[C@H](OCCO)CC3)c2=O)cn1,96.9,97.5,88.7,76.4,74.2,50,52.6,38,38.8,28.3,20,93.6,87,90.7,84.8,87.4,64.5,68.5,47.7,43.1,40.3,28.4,86.8,86.6,80.7,75.1,66.4,58.4,50,41.2,37.6,34.8,23.3
CC(=O)[C@H]1CC[C@H]2[C@@H]3C/C=C4/C[C@@H](O)CC[C@]4(C)[C@H]3CC[C@]12C,129,121,125,115,131,129,138,123,119,104,108,121,113,119,111,116,117,109,121,110,111,119,121,118,139,128,129,114,132,121,118,116,97.7
Clc1ccc(C(Cn2ccnc2)OCc2ccc(Sc3ccccc3)cc2)c(Cl)c1 (centres undefined),126,101,124,120,146,109,126,107,109,98.8,104,99.2,108,106,111,111,125,104,103,118,70.9,63.8,111,123,116,112,116,125,134,104,124,88.9,59.8
CC=CC1=C(C(=O)O)N2C(=O)[C@@H](NC(=O)[C@H](N)c3ccc(O)cc3)[C@H]2SC1.O,80.5,102,113,104,120,116,118,60.7,33.1,31.3,23.8,93.7,109,113,116,112,125,118,28.4,22.2,18.1,15.1,106,104,96,104,117,113,109,89.6,24.8,23.6,20
C[C@@H](Oc1ccc2[nH]nc(/C=C/c3cnn(CCO)c3)c2c1)c1c(Cl)cncc1Cl,99.5,102,98.9,93.9,99.9,89.7,86,86.4,70.9,38.4,41.3,94.6,108,89.2,86,80.9,83.6,89.3,76.3,74.2,40,33.9,82.9,92.3,89,85.2,92.8,99.1,87.4,73.5,80.9,40.9,34.9
COC1=CC(=C2C(=O)N(COC/3=C/C(=O)N4\C=C/C=C(OCCN5CCCCC5)\C4=N3)[S+]([O-])(=O)C2=C1)C(C)C,,,,,,,,,,,,121,123,127,134,132,127,129,140,141,140,127,,,,,,,,,,,
NNC(=O)c1ccncc1,90.3,99.2,117,123,121,124,125,123,137,131,123,108,111,114,109,122,135,123,115,128,119,130,120,117,110,117,119,118,119,126,124,126,125
CN(C)c1ccccc1CN1CCCN(Cc2ccccc2N(C)C)C1c1ccncc1,93.7,103,91.6,29.8,113,115,108,110,99.9,95.7,65.7,86.4,82.7,89.2,18.6,89.4,88,91.1,81.3,83.5,89.7,74.5,77.3,88.7,90.6,33.3,93,99.6,93.7,97.7,95.4,95,65
